Experimental data published in BindingDB's records for doi:10.1021/jm00160a010 (1986).

Legend:
[1] = Displacement of [3H]EK from Opioid receptor delta 1 in guinea pig brain membrane
[2] = Compound was tested for binding affinity against delta opioid receptor in guinea pig brain membrane using [3H]EK as the radioligand

SMILES | Ki [1] [nM] | Ki [2] [nM]
O=C(CCC(=O)N[C@@H]1CC[C@@]2(O)[C@H]3Cc4ccc(O)c5c4[C@@]2(CCN3CC2CC2)[C@H]1O5)N[C@@H]1CC[C@@]2(O)[C@H]3Cc4ccc(O)c5c4[C@@]2(CCN3CC2CC2)[C@H]1O5 [1N,4N-di[4-cyclopropylmethyl-10,17-dihydroxy-(13R,14R,17S)-12-oxa-4-azapentacyclo[9.6.1.01,13.05,17.07,18]octadeca-7(18),8,10-trien-14-yl]succinamide] | 12 | 
O=C(CCC(=O)NCC(=O)N[C@@H]1CC[C@@]2(O)[C@H]3Cc4ccc(O)c5c4[C@@]2(CCN3CC2CC2)[C@H]1O5)NCC(=O)N[C@@H]1CC[C@@]2(O)[C@H]3Cc4ccc(O)c5c4[C@@]2(CCN3CC2CC2)[C@H]1O5 [1N,4N-di[4-cyclopropylmethyl-10,17-dihydroxy-(13R,14R,17S)-12-oxa-4-azapentacyclo[9.6.1.01,13.05,17.07,18]octadeca-7(18),8,10-trien-14-ylcarbamoylmethyl]succinamide] | 7.8 | 
O=C(CCC(=O)NCC(=O)NCC(=O)N[C@@H]1CC[C@@]2(O)[C@H]3Cc4ccc(O)c5c4[C@@]2(CCN3CC2CC2)[C@H]1O5)NCC(=O)NCC(=O)N[C@@H]1CC[C@@]2(O)[C@H]3Cc4ccc(O)c5c4[C@@]2(CCN3CC2CC2)[C@H]1O5 [1N,4N-di[4-cyclopropylmethyl-10,17-dihydroxy-(13R,14R,17S)-12-oxa-4-azapentacyclo[9.6.1.01,13.05,17.07,18]octadeca-7(18),8,10-trien-14-ylcarbamoylmethylcarbamoylmethyl]succinamide] | 4.9 | 
O=C(CCC(=O)NCC(=O)NCC(=O)NCC(=O)N[C@@H]1CC[C@@]2(O)[C@H]3Cc4ccc(O)c5c4[C@@]2(CCN3CC2CC2)[C@H]1O5)NCC(=O)NCC(=O)NCC(=O)N[C@@H]1CC[C@@]2(O)[C@H]3Cc4ccc(O)c5c4[C@@]2(CCN3CC2CC2)[C@H]1O5 [1N,4N-di[4-cyclopropylmethyl-10,17-dihydroxy-(13R,14R,17S)-12-oxa-4-azapentacyclo[9.6.1.01,13.05,17.07,18]octadeca-7(18),8,10-trien-14-ylcarbamoylmethylcarbamoylmethylcarbamoylmethyl]succinamide] | 6.4 | 
CN1CC[C@]23c4c5ccc(O)c4O[C@@H]2[C@H](NC(=O)CCC(=O)N[C@@H]2CC[C@]4(O)[C@H]6Cc7ccc(O)c8c7[C@@]4(CCN6C)[C@@H]2O8)CC[C@]3(O)[C@H]1C5 [1N,4N-di[10,17-dihydroxy-4-methyl-(13R,14S,17S)-12-oxa-4-azapentacyclo[9.6.1.01,13.05,17.07,18]octadeca-7(18),8,10-trien-14-yl]succinamide] | 200 | 
CN1CC[C@]23c4c5ccc(O)c4O[C@@H]2[C@H](NC(=O)CNC(=O)CCC(=O)NCC(=O)N[C@@H]2CC[C@]4(O)[C@H]6Cc7ccc(O)c8c7[C@@]4(CCN6C)[C@@H]2O8)CC[C@]3(O)[C@H]1C5 [1N,4N-di[10,17-dihydroxy-4-methyl-(13R,14S,17S)-12-oxa-4-azapentacyclo[9.6.1.01,13.05,17.07,18]octadeca-7(18),8,10-trien-14-ylcarbamoylmethyl]succinamide] | 86 | 
CN1CC[C@]23c4c5ccc(O)c4O[C@@H]2[C@H](NC(=O)CNC(=O)CNC(=O)CNC(=O)CCC(=O)NCC(=O)NCC(=O)NCC(=O)N[C@@H]2CC[C@]4(O)[C@H]6Cc7ccc(O)c8c7[C@@]4(CCN6C)[C@@H]2O8)CC[C@]3(O)[C@H]1C5 [1N,4N-di[10,17-dihydroxy-4-methyl-(13R,14S,17S)-12-oxa-4-azapentacyclo[9.6.1.01,13.05,17.07,18]octadeca-7(18),8,10-trien-14-ylcarbamoylmethylcarbamoylmethyl]succinamide] | 42 | 
CN1CC[C@]23c4c5ccc(O)c4O[C@H]2[C@@H](NC(=O)CNC(=O)CNC(=O)CCC(=O)NCC(=O)NCC(=O)N[C@H]2CC[C@@]4(O)[C@H]6Cc7ccc(O)c8c7[C@@]4(CCN6C)[C@H]2O8)CC[C@@]3(O)[C@H]1C5 [1N,4N-di[10,17-dihydroxy-4-methyl-(13R,14S,17S)-12-oxa-4-azapentacyclo[9.6.1.01,13.05,17.07,18]octadeca-7(18),8,10-trien-14-ylcarbamoylmethylcarbamoylmethylcarbamoylmethyl]succinamide] | 50 | 
CN1CC[C@]23c4c5ccc(O)c4O[C@@H]2[C@H](NC(=O)CNC(=O)CNC(=O)CCC(=O)NCC(=O)NCC(=O)N[C@@H]2CC[C@]4(O)[C@H]6Cc7ccc(O)c8c7[C@@]4(CCN6C)[C@@H]2O8)CC[C@]3(O)[C@H]1C5 [1N,4N-di[10,17-dihydroxy-4-methyl-(13S,14R,17R)-12-oxa-4-azapentacyclo[9.6.1.01,13.05,17.07,18]octadeca-7(18),8,10-trien-14-ylcarbamoylmethylcarbamoylmethyl]succinamide] |  | 27
